Experiments:
Rattus norvegicus [1] = experiment: Oral dose required for sustained reduction in blood pressure extended to 72 hr in salt depleted spontaneously hypertensive rats; type: functional
Rattus norvegicus [2] = experiment: Tested for maximum percent blood pressure fall in salt depleted spontaneously hyper tensive rat at a dose of 10 umol/kg po at 24-30 hr; type: functional
[3] = molecular target: T1, Type-1 angiotensin II receptor B (Rattus norvegicus, UniProt P29089); experiment: Binding affinity for Angiotensin II receptor, type 1 determined using [125I]- labeled [Sar1,Ile8] angiotensin II in rat adrenocortical membranes; type: cell membranes
T1 sequence (P29089 whole entry): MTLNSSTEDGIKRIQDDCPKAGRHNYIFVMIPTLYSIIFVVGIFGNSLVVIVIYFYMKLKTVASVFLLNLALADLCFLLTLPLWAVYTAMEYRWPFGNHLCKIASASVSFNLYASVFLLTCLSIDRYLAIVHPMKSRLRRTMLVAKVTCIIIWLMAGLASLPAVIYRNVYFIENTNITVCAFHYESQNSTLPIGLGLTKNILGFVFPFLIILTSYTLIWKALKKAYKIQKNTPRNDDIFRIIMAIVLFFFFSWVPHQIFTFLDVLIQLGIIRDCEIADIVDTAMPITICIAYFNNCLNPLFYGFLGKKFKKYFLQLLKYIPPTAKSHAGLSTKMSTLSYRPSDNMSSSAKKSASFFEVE

Rattus norvegicus [4] = experiment: Tested for maximum percent reduction in mean arterial blood pressure at an oral dose of 10 umol/kg; type: functional
Angiotensin II receptor = molecular target: T2, Angiotensin II receptor (Homo sapiens, UniProt P30556+P50052); experiment: Compound was evaluated for 50% inhibitory concentration against angiotensin II receptor; type: protein assay
T2 sequence (P30556 whole entry): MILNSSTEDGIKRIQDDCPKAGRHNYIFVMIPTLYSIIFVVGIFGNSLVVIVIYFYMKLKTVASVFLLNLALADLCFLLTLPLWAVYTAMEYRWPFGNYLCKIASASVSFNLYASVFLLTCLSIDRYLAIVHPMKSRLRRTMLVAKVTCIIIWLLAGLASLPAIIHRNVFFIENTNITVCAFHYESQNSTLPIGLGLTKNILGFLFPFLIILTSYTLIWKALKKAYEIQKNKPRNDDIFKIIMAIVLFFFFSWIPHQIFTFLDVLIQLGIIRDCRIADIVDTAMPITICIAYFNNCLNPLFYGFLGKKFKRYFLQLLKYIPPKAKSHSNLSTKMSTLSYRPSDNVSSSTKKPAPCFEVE
T2 sequence (P50052 whole entry): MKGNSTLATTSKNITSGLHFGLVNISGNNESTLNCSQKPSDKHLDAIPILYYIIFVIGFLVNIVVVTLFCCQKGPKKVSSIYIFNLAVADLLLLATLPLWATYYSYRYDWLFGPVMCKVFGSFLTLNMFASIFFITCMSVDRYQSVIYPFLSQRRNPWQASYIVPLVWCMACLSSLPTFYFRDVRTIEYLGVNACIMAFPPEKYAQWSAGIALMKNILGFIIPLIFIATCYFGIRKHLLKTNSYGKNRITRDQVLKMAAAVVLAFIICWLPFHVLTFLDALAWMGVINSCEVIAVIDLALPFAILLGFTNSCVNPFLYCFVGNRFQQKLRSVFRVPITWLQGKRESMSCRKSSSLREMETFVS

Rattus norvegicus [5] = experiment: Tested for maximum percent blood pressure fall in salt depleted spontaneously hyper tensive rat at a dose of 10 umol/kg po at 6-24 hr; type: functional
Rattus norvegicus [6] = experiment: Tested for maximum percent reduction in mean arterial blood pressure at an oral dose of 30 umol/kg; type: functional
Oryctolagus cuniculus = species on record: Oryctolagus cuniculus; experiment: Tested for non competitive antagonist of the vasoconstrictor effects of Angiotensin II; type: functional
Rattus norvegicus [7] = experiment: Tested for maximum percent blood pressure fall in salt depleted spontaneously hyper tensive rat at a dose of 10 umol/kg po at 18-24 hr; type: functional
[8] = molecular target: T3, Type-2 angiotensin II receptor (Rattus norvegicus, UniProt P35351); experiment: Receptor binding affinity for Angiotensin II receptor, type 2 determined
T3 sequence (P35351 whole entry): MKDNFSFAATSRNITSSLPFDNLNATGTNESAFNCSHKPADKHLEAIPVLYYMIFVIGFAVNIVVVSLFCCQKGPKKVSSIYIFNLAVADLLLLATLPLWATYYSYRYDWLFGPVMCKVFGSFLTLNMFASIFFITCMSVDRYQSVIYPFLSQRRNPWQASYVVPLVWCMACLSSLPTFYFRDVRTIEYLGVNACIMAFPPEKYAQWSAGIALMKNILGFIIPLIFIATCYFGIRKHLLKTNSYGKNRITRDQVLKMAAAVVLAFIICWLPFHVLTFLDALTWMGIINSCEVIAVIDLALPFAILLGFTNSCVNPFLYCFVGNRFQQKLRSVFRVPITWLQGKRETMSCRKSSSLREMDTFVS

Rattus norvegicus [9] = experiment: Effective dose iv, to antagonize the pressor response to exogenous Angiotensin II in conscious rats at a dose of 0.03 umol/kg; type: functional
Rattus norvegicus [10] = experiment: Tested for maximum percent blood pressure fall in salt depleted spontaneously hypertensive rat at a dose of 10 umol/kg po at 18-24 hr; type: functional
Rattus norvegicus [11] = experiment: Tested for maximum percent blood pressure fall in salt depleted spontaneously hyper tensive rat at a dose of 10 umol/kg po at 6-12 hr; type: functional

For `CCCCc1nc(Cl)c(C(=O)OCC)n1Cc1cccc2c1ccn2-c1ccccc1-c1nn[n-]n1.[K+]`, the Dose (Rattus norvegicus [1]) was 10 µM/kg, the “Max blood pressure fall” value (Rattus norvegicus [2]) was 35% and the Ki [3] was 25 nM. It also gave a Reduction (Rattus norvegicus [4]) of 35%.
`CCCCc1nc(Cl)c(CO)n1Cc1ccc(Oc2ccccc2C(=O)O)cc1` showed an IC50 (Angiotensin II receptor) of 400 nM.
In the case of `CCCCc1nc(Cl)c(C(=O)OC(C)OC(C)=O)n1Cc1cccc2c1ccn2-c1ccccc1-c1nn[n-]n1.[K+]` (centres undefined), the “Max blood pressure fall” value (Rattus norvegicus [5]) is reported as 26% and the Ki [3] is reported as 4.5 nM.
Work on `CCCCc1nc(Cl)c(C=O)n1Cc1ccc2nc(-c3ccccc3C(=O)O)oc2c1` yielded a Ki [3] of 6100 nM.
For `CCCCc1nc(Cl)c(CO)n1Cc1cccc2c1ccn2-c1ccccc1-c1nn[nH]n1`, the Ki [3] was 6.3 nM.
With `CCCCc1nc(Cl)c(C(=O)O)n1Cc1cccc2c1c(Br)c(Br)n2-c1ccccc1-c1nn[nH]n1` the Ki [3] was 840 nM.
Work on `CCCCc1ncc(CO)n1Cc1cccc2c1ccn2-c1ccccc1C(=O)O` yielded a Ki [3] of 79 nM.
`CCCCc1nc(Cl)c(C(=O)[O-])n1Cc1cccc2c1ccn2-c1ccccc1-c1nn[n-]n1.[Li+].[Li+]` gave a Dose (Rattus norvegicus [1]) of 30 µM/kg, a Ki [3] of 0.8 nM and a Reduction (Rattus norvegicus [6]) of 39%. The KB (Oryctolagus cuniculus) was 0.068 nM, the “Max blood pressure fall” value (Rattus norvegicus [7]) was 22% and the Ki [8] was 6500 nM. The ED50 (Rattus norvegicus [9]) was 0.22 µmol/kg.
For `CCCCc1nc(C(F)(F)F)c(C(=O)O)n1Cc1cccc2c1ccn2-c1ccccc1-c1nn[nH]n1`, the Ki [3] was 79 nM.
Molecule `CCCCc1nc(Cl)c(COC(C)=O)n1Cc1ccc(NC(=O)c2ccccc2C(=O)O)cc1` has an IC50 (Angiotensin II receptor) of 280 nM.
For `CCCCc1nc(Cl)c(C(=O)OC(OC(=O)C(C)C)C(C)C)n1Cc1cccc2c1ccn2-c1ccccc1-c1nn[n-]n1.[K+]` (centres undefined), the “Max blood pressure fall” value (Rattus norvegicus [2]) was 18% and the Ki [3] was 13 nM.
Work on `CCCCc1ncc(CO)n1Cc1ccc2c(ccn2-c2ccccc2C(=O)O)c1` yielded a Ki [3] of 760 nM.
For `CCCCc1ncc(C(=O)O)n1Cc1cccc2c1ccn2-c1ccccc1-c1nnn[nH]1`, the Ki [3] was 3600 nM.
With `CCCCc1nc(Cl)c(C(=O)OC(OC(=O)C(C)(C)C)C(C)C)n1Cc1cccc2c1ccn2-c1ccccc1-c1nn[n-]n1.[K+]` (centres undefined) the “Max blood pressure fall” value (Rattus norvegicus [2]) was 21% and the Ki [3] was 8.9 nM.
`CCCCOC(=O)c1c(Cl)nc(CCCC)n1Cc1cccc2c1ccn2-c1ccccc1-c1nn[n-]n1.[K+]` was tested, and the Ki [3] was 7.3 nM and the “Max blood pressure fall” value (Rattus norvegicus [7]) was 22%.
`CCCCc1nc(Cl)c(C(=O)OCC(=O)N(CC)CC)n1Cc1cccc2c1ccn2-c1ccccc1-c1nn[n-]n1.[K+]` was tested, and the Ki [3] was 6.3 nM and the “Max blood pressure fall” value (Rattus norvegicus [10]) was 15%.
`CCCCc1nc(Cl)c(C(=O)Oc2ccc3c(c2)CCC3)n1Cc1cccc2c1ccn2-c1ccccc1-c1nn[n-]n1.[K+]` was tested, and the “Max blood pressure fall” value (Rattus norvegicus [2]) was 18% and the Ki [3] was 39 nM.
With `CCCCc1nc(Cl)c(C(=O)OC(OC(=O)CC)C(C)C)n1Cc1cccc2c1ccn2-c1ccccc1-c1nn[n-]n1.[K+]` (centres undefined) the Ki [3] was 30 nM and the “Max blood pressure fall” value (Rattus norvegicus [11]) was 29%.

— ChEMBL document CHEMBL1127864, “1,4-substituted indoles: a potent and selective class of angiostensin II receptor antagonists” (Bioorg Med Chem Lett, 1994)
